In the supplement of paper PMC12592484:

How the values were obtained:
Assay in all cases: drug sensitivity score (DSS2, normalised partial AUC of dose-response, 72 h CellTiter-Glo viability) (DSS (dimensionless)); higher = more sensitive (stronger growth inhibition / cytotoxicity); extreme values may be limits of the assay
22Rv1 = tested on: 22Rv1
Outline: (§1)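 Five doses spanning a 10,000-fold range were pre-dispensed into 384-well plates, into which low-passage primary prostate cancer-associated fibroblasts, PF179T, WPMY-1, LNCaP and 22Rv1 cells were seeded. After 72 h, CellTiter-Glo 2.0 luminescence measured viability, scaled to vehicle and positive-control wells. Higher values of the drug sensitivity score, a BREEZE-computed partial area under the fitted logistic dose–response curve divided by the log of the upper asymptote, mean greater sensitivity.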

CAF#1 = tested on: CAF#1 (primary prostate cancer-associated fibroblasts of myCAF-like type)
Outline: as §1

CAF#2 = tested on: CAF#2 (primary prostate cancer-associated fibroblasts of iCAF-like type)
Outline: as §1

CAF#3 = tested on: CAF#3 (primary prostate cancer-associated fibroblasts of myCAF-like type)
Outline: as §1

CAF#4 = tested on: CAF#4 (primary prostate cancer-associated fibroblasts of iCAF-like type)
Outline: as §1

CAF#5 = tested on: CAF#5 (primary prostate cancer-associated fibroblasts of myCAF-like type)
Outline: as §1

CAF#6 = tested on: CAF#6 (primary prostate cancer-associated fibroblasts of iCAF-like type)
Outline: as §1

CAF#7 = tested on: CAF#7 (primary prostate cancer-associated fibroblasts of myCAF-like type)
Outline: as §1

LNCAP = tested on: LNCAP
Outline: as §1

PF179T = tested on: PF179T
Outline: as §1

WPMY-1 = tested on: WPMY-1
Outline: as §1

Structure (SMILES)	drug sensitivity score (22Rv1)	drug sensitivity score (CAF#1)	drug sensitivity score (CAF#2)	drug sensitivity score (CAF#3)	drug sensitivity score (CAF#4)	drug sensitivity score (CAF#5)	drug sensitivity score (CAF#6)	drug sensitivity score (CAF#7)	drug sensitivity score (LNCAP)	drug sensitivity score (PF179T)	drug sensitivity score (WPMY-1)
COc1cccc(OCCCN)c1-c1cc(Nc2cnc(C#N)cn2)n[nH]1 [Prexasertib] (tested concentration range 1-10000 nM)	24.4	8.6	16.6	4.9	8.7	9.1	6.8	5.4	24.3	14.5	29.7
CC(C)(C)c1cc(NC(=O)Nc2ccc(-c3cn4c(n3)sc3cc(OCCN5CCOCC5)ccc34)cc2)no1 [Quizartinib] (tested concentration range 0.1-1000 nM)	0	0.3	2.3	0	0	1.5	0	0	0	0	1.4
Nc1cc(F)ccc1NC(=O)/C=C/c1cnn(C/C=C/c2ccccc2)c1 [RGFP966] (tested concentration range 1-10000 nM)	1.8	3.1	3.2	2.6	3.3	3.1	2.1	2.7	8.3	3.8	2.2
COC(=O)c1ccc([C@H]2c3[nH]c4ccccc4c3C[C@H](C(=O)OC)N2C(=O)CCl)cc1 [RSL3] (tested concentration range 1-10000 nM)	0	0.7	3	2.5	0	0.3	0.6	9.5	0.9	0	0
Cc1cn(-c2cc(NC(=O)c3ccc(C)c(Nc4nccc(-c5cnccn5)n4)c3)cc(C(F)(F)F)c2)cn1 [Radotinib] (tested concentration range 1-10000 nM)	0	0.5	0	0	0.1	0	0	0	0.3	0	0
CC(C)(C)Cn1c(N)nc2ccc(-c3[nH]c(C(C)(C)C)nc3-c3ccc(F)cc3)nc21 [Ralimetinib] (tested concentration range 1-10000 nM)	3.8	0.8	1.9	2.1	0.1	0	0.1	0	11.2	0	2.8
O=C(c1ccc(OCCN2CCCCC2)cc1)c1c(-c2ccc(O)cc2)sc2cc(O)ccc12 [Raloxifene] (tested concentration range 1-10000 nM)	2.9	0	0.7	2.4	0.5	0.2	0.4	0.5	2.9	0.8	5.8
Cc1nc(=O)c2cc(CN(C)c3ccc(C(=O)N[C@@H](CCC(=O)O)C(=O)O)s3)ccc2[nH]1 [Raltitrexed] (tested concentration range 0.1-1000 nM)	0	3.3	4.4	0	0.8	2.8	0.2	0	11.1	0.3	14
CNC(=O)c1cc(Oc2ccc(NC(=O)Nc3ccc(Cl)c(C(F)(F)F)c3)c(F)c2)ccn1 [Regorafenib] (tested concentration range 1-10000 nM)	6	2.8	3.4	3.7	2.4	3.2	1	2.7	7.2	1.9	3.8
CCOC(=O)C1=CCCC[C@H]1S(=O)(=O)Nc1ccc(F)cc1Cl [Resatorvid] (tested concentration range 1-10000 nM)	0	0	0	5.7	0	0	3.6	0.3	0.4	0	0
CCOCc1nc2c(N)nc3ccccc3c2n1CC(C)(C)O [Resiquimod] (tested concentration range 1-10000 nM)	0	0	0.4	0	0	0	0	0	0	0	0
CN(C)Cc1ccc(S(=O)(=O)n2ccc(/C=C/C(=O)NO)c2)cc1 [Resminostat] (tested concentration range 1-10000 nM)	12.3	4.4	5.9	6	6	4.6	5.9	4.7	12.2	6	13.6
CN(C)C(=O)c1cc2cnc(Nc3ccc(N4CCNCC4)cn3)nc2n1C1CCCC1 [Ribociclib] (tested concentration range 1-10000 nM)	5	0	4.6	2.9	2.7	2.5	2.4	3	7.7	3.7	0
C=CC(=O)Nc1cccc(Nc2nc(Nc3ccc(N4CCN(C(C)=O)CC4)cc3OC)ncc2C(F)(F)F)c1 [Rociletinib] (tested concentration range 0.5-5000 nM)	6	6.6	8.3	2.1	6.8	5.2	2.6	4	2.6	5	7
C/C=C1\NC(=O)[C@H]2CSSCC/C=C/[C@H](CC(=O)N[C@H](C(C)C)C(=O)N2)OC(=O)[C@H](C(C)C)NC1=O [Romidepsin] (tested concentration range 0.1-1000 nM)	27.9	23.1	23.4	23.1	21.4	25	26.6	24.4	35.5	22.5	30
Cc1nc(C(=O)NCC(=O)O)c(O)c2ccc(Oc3ccccc3)cc12 [Roxadustat] (tested concentration range 1-10000 nM)	0	0	0	0	0	0.2	0	0	0	0	0
CN(C)C[C@@H]1CCn2cc(c3ccccc32)C2=C(C(=O)NC2=O)c2cn(c3ccccc23)CCO1 [Ruboxistaurin] (tested concentration range 1-10000 nM)	9.6	8.4	6.6	8.9	8.4	6.8	6.8	5.9	8.2	8.4	8.4
CNCc1ccc(-c2[nH]c3cc(F)cc4c3c2CCNC4=O)cc1 [Rucaparib] (tested concentration range 1-10000 nM)	4.6	0.8	2.3	0	3.8	0	0.5	2.9	4.8	3.7	1.8
N#CC[C@H](C1CCCC1)n1cc(-c2ncnc3[nH]ccc23)cn1 [Ruxolitinib] (tested concentration range 1-10000 nM)	0	0	0.8	0	0	1.3	0	0	1.5	0	0.6
CC(C)N(CCCNC(=O)Nc1ccc(C(C)(C)C)cc1)C[C@H]1O[C@@H](n2cc(Br)c3c(N)ncnc32)[C@H](O)[C@@H]1O [SGC0946] (tested concentration range 1-10000 nM)	1.6	0.2	0	0.5	0.8	0	0.1	1.2	2.1	0	2.2
COc1ccc(CCc2nc3cc(-c4c(C)noc4C)ccc3n2C[C@H](C)N2CCOCC2)cc1Cl [SGC-CBP30] (tested concentration range 2.5-25000 nM)	6.2	1.6	1.5	5.4	1.3	0.8	2.2	1.2	8.5	0.1	7.4
CN(CC(=O)N(Cc1ccc(C2CCCCC2)cc1)c1ccc(C(=O)O)cc1)S(=O)(=O)c1c(F)c(F)c(F)c(F)c1F [SH-4-54] (tested concentration range 2.5-25000 nM)	8.4	6.3	6.3	5.4	5.6	6	7.2	4.6	6	5.5	6.5
CCc1c2c(nc3ccc(O)cc13)-c1cc3c(c(=O)n1C2)COC(=O)[C@]3(O)CC [SN-38] (tested concentration range 1-10000 nM)	39.3	20.3	25.5	7.1	20.3	14.3	8.7	11.8	34.8	19.7	35
CC[C@@H](C(=O)[C@@H](C)[C@@H](O)[C@H](C)[C@@H]1O[C@@H]([C@@H](CC)C(=O)O)CC[C@@H]1C)[C@H]1O[C@]2(C=C[C@@H](O)[C@]3(CC[C@@](C)([C@H]4CC[C@](O)(CC)[C@H](C)O4)O3)O2)[C@H](C)C[C@@H]1C [Salinomycin] (tested concentration range 5-50000 nM)	26.4	26.8	26.5	9.4	25.2	23.6	21.2	18.5	29.1	19.1	28.8
CC(C)n1nc(-c2ccc3oc(N)nc3c2)c2c(N)ncnc21 [Sapanisertib] (tested concentration range 0.1-1000 nM)	21.2	20.2	14	14.3	17.8	19.1	14.6	13.2	20	18	13.7
